Results from publication PMC3985615 (Journal of medicinal chemistry, 2013).

Assays:
Trap-1 [1] = biological target: T1, Trap-1 (Homo sapiens, UniProt Q12931); conditions: from FP competition IC50, Table 1
T1 sequence (Q12931 60-704): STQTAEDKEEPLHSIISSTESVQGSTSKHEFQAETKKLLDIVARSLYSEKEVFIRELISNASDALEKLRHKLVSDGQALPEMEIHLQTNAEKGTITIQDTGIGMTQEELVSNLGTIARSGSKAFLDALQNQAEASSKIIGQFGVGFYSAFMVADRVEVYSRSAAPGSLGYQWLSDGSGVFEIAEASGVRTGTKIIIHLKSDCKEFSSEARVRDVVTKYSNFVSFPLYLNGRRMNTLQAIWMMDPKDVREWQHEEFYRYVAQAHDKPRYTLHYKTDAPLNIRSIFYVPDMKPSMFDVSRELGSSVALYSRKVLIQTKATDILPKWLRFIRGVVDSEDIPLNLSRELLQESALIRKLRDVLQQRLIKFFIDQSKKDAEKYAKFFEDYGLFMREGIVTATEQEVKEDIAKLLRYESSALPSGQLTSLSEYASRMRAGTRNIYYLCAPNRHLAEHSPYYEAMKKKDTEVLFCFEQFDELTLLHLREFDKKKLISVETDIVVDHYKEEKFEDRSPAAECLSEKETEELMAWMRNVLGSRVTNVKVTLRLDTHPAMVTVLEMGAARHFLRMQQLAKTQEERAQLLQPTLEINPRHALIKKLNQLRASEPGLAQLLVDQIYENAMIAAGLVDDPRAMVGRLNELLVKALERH

Grp94 = Grp94 (Canis lupus familiaris, UniProt P41148); assay: FP saturation binding assay of probes, Grp94; design: species or system canine; conditions: for assay window, Grp94: mP at saturation minus mP of probe alone
Sequence of Grp94 (P41148 22-804): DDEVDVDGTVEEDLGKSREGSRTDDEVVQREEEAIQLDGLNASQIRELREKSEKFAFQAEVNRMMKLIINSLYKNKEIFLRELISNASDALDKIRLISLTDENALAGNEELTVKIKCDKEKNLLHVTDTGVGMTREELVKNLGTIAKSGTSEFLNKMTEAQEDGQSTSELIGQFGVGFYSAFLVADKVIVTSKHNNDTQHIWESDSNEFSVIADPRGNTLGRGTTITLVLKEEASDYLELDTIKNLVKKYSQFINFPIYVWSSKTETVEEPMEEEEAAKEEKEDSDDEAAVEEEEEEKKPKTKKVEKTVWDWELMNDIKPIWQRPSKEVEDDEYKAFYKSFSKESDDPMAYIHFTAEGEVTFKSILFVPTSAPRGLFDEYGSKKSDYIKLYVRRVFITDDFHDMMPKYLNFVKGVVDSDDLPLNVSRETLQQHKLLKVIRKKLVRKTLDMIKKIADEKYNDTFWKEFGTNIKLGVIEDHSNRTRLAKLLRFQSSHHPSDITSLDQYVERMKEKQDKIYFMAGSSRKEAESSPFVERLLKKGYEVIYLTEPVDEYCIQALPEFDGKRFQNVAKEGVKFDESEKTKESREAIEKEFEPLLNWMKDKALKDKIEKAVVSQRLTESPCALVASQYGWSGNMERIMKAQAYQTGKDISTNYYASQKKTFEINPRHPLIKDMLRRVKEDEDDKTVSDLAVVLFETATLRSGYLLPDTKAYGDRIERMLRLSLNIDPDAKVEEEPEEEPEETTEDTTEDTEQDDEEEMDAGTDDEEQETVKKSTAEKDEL

Trap-1 [2] = conditions: cited from earlier work
Hsp90 in SKBr3 lysate = assay: FP saturation binding of probes to Hsp90 in cancer cell lysate; design: species or system human; conditions: 4 °C
Hsp90α = Hsp90α (Homo sapiens, UniProt P07900); assay: FP saturation binding assay of probes, Hsp90α; conditions: mP at saturation minus mP of probe alone
Hsp90β = Hsp90β (Homo sapiens, UniProt P08238); assay: FP saturation binding assay of probes, Hsp90β; conditions: mP at saturation minus mP of probe alone
Sequence of Hsp90β (P08238 whole entry): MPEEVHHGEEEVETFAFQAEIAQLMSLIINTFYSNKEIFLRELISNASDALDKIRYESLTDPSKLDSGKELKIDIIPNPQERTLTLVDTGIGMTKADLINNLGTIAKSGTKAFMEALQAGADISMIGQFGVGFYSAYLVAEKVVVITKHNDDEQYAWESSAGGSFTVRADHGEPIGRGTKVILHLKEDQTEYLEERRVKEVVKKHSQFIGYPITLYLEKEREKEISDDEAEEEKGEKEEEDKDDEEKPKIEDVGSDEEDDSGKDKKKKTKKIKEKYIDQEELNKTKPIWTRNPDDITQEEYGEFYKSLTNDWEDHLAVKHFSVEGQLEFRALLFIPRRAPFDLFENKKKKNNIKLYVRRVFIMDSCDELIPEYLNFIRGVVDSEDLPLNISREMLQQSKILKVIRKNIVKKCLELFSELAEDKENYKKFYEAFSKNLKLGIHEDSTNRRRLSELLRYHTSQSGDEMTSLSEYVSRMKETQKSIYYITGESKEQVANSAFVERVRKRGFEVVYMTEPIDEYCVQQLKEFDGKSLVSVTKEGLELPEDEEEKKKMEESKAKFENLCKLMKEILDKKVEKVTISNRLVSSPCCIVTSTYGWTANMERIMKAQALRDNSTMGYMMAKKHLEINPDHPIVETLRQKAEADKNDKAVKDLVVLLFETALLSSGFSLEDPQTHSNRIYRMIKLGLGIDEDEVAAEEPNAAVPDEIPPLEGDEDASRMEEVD

Question: For COC1=C2C[C@@H](C)C[C@H](OC)[C@H](O)[C@@H](C)/C=C(\C)[C@H](OC(N)=O)[C@@H](OC)/C=C\C=C(/C)C(=O)NC(=CC1=O)C2=O [compound 1, Geldanamycin], which “decrease in binding affinity for Trap-1 compared to Hsp90” value (“decrease in binding affinity” for short) (Trap-1 [1]) is on record?
Answer: The value was 25 fold.

Question: For CCNC(=O)c1noc(-c2cc(C(C)C)c(O)cc2O)c1-c1ccc(CN2CCOCC2)cc1 [compound 7], which “decrease in binding affinity” value (Trap-1 [1]) is on record?
Answer: The value was 2 fold.

Question: With C=CCNC1=C2C[C@@H](C)C[C@H](OC)[C@H](O)[C@@H](C)/C=C(\C)[C@H](OC(N)=O)[C@@H](OC)/C=C\C=C(/C)C(=O)NC(=CC1=O)C2=O [compound 2, 17-allyl-17-demethoxygeldanamycin] as the molecule, how does the “loss of affinity for Trap-1 vs Hsp90” value (Trap-1 [1]) read?
Answer: The value was about 2 log.

Question: For COc1c(C)cnc(Cn2cnc3c(Cl)nc(N)nc32)c1C [compound 3], which “decrease in binding affinity” value (Trap-1 [1]) is on record?
Answer: Its value is 5 fold.

Question: With CC(C)N(CCCn1c(Sc2cc3c(cc2I)OCO3)nc2c(N)ncnc21)C(=S)Nc1ccc(-c2c3ccc(=O)cc-3oc3cc(O)ccc23)c(C(=O)O)c1 [compound 12] as the molecule, how does the “preference for Hsp90α, Hsp90β and Trap-1 over Grp94” value (Grp94; from apparent Kd, saturation binding) read?
Answer: The value was 1 log.

Question: What about the “assay window, Grp94” value (Grp94) of the same molecule?
Answer: The value was “less than 100 mP”.

Question: With Nc1ncnc2c1ncn2[C@@H]1O[C@H](COP(=O)(O)OP(=O)(O)OP(=O)(O)O)[C@@H](O)[C@H]1O [ATP] as the molecule, how does the “reported greater affinity of Trap-1 than of Hsp90” value (Trap-1 [2]) read?
Answer: Its value is “approximately 10 fold”.

Question: What about the Kd (Trap-1 [2]; read-out: reported binding affinity for Trap-1) of the same molecule?
Answer: The Kd was 34.3 µM.

Question: With CC(C)NCCCn1c(Sc2cc3c(cc2I)OCO3)nc2c(N)ncnc21 [compound 4] as the molecule, how does the “decrease in binding affinity” value (Trap-1 [1]) read?
Answer: The value was 5 fold.

Question: For Nc1ncnc2c1nc(Sc1cc3c(cc1I)OCO3)n2CCCNC(=S)Nc1ccc(-c2c3ccc(=O)cc-3oc3cc(O)ccc23)c(C(=O)O)c1 [16a], which “time binding remained stable” value (Hsp90 in SKBr3 lysate) is on record?
Answer: The value was “more than 24 h”.

Question: And the “time to reach binding equilibrium with Hsp90” value (Hsp90 in SKBr3 lysate)?
Answer: The value was at most 8 h.

Question: And the “assay window, Hsp90α” value (Hsp90α)?
Answer: Its value is over 150 mP.

Question: And the “assay window, Hsp90β” value (Hsp90β)?
Answer: The value was over 150 mP.

Question: And the “assay window, Grp94” value (Grp94)?
Answer: Its value is over 150 mP.

Question: What does the source list for CN(C)c1cc2c(cc1Sc1nc3c(N)nccc3n1CCNCC(C)(C)C)OCO2 [compound 5]?
Answer: decrease in binding affinity for Trap-1 compared to Hsp90 (Trap-1 [1]): 50 fold; loss of affinity for Trap-1 vs Hsp90 (Trap-1 [1]): ~2 log
